Assay results: article PMC8037182, “Solvothermal Synthesis of Multiple Dihydropyrimidinones at a Time as Inhibitors of Eg5” (Molecules, 2021)

System: L929 cell line
Experiment: Cytotoxicity MTS assay, L929 cell line
Type: cell-based
Conditions: for OD490 values, Mean / OD490 values, Well 1 / OD490 values, Well 2 / OD490 values, Well 3: L929 cell line; for IC50: MTS assay, 24 h exposure, ordinary fibroblast, not cancer cells
Experimental: The positive compounds (IC50 < 100 μM) obtained from the primary Eg5 motor protein ATPase assay were tested for antiproliferative activity in vitro against Caco-2 cell line, Hela cell line, L929 cell line and T24 cell line by performing MTS assay. Cells were introduced into 96-well plates at a density of 1000 cells per well. After 24 h incubation, the cells were exposed with compounds at final concentrations ranging from 0.5 to 100 µM for 24 h. DMSO was used at a final concentration of 0.025% as blank control, monastrol was used as the positive control. Then 20 µL (CellTiter 96® AQueous One Solution Promega, Madison, WI, USA) reagent was added in each well. After 2 h at 37 °C in a 80% humidified, 5% CO2 atmosphere, the absorbance at 490 nm was recorded using a microplate reader (BIO-RAD iMark^TM). The results were obtained in three independent duplicate experiments. The primary data were shown in Supplementary Materials Tables S4–S7. The IC50 values for these compounds were calculated from a non-linear regression graph plotted between the percentage of cell viability and concentration with SPSS17.0 software.

In the case of CCOC(=O)c1c(C2NC(=O)NC(C)=C2C(=O)Nc2ccccc2C)[nH]c(C(=O)OC)c1C (stereo not drawn) [D2], the “OD490 values, Mean” value (0.5μM, first assay) is reported as 1.3610, the “OD490 values, Well 1” value (0.5μM, first assay) is reported as 1.3640 and the “OD490 values, Well 2” value (0.5μM, first assay) is reported as 1.3358. The “OD490 values, Well 3” value (0.5μM, first assay) was 1.3832, the “OD490 values, Mean” value (1μM, first assay) was 1.4199 and the “OD490 values, Well 1” value (1μM, first assay) was 1.4170. The “OD490 values, Well 2” value (1μM, first assay) was 1.4018, the “OD490 values, Well 3” value (1μM, first assay) was 1.4410 and the “OD490 values, Mean” value (10μM, first assay) was 1.4901. The “OD490 values, Well 1” value (10μM, first assay) was 1.4578, the “OD490 values, Well 2” value (10μM, first assay) was 1.4940 and the “OD490 values, Well 3” value (10μM, first assay) was 1.5185. For the same compound, the “OD490 values, Mean” value (25μM, first assay) was 1.5070, the “OD490 values, Well 1” value (25μM, first assay) was 1.5039 and the “OD490 values, Well 2” value (25μM, first assay) was 1.5321. For the same compound, the “OD490 values, Well 3” value (25μM, first assay) was 1.4850, the “OD490 values, Mean” value (50μM, first assay) was 1.4864 and the “OD490 values, Well 1” value (50μM, first assay) was 1.5650. For the same compound, the “OD490 values, Well 2” value (50μM, first assay) was 1.4275, the “OD490 values, Well 3” value (50μM, first assay) was 1.4667 and the “OD490 values, Mean” value (100μM, first assay) was 1.2316. The “OD490 values, Well 1” value (100μM, first assay) was 1.2364, the “OD490 values, Well 2” value (100μM, first assay) was 1.1967 and the “OD490 values, Well 3” value (100μM, first assay) was 1.2618. For the same compound, the IC50 was over 150 µM.

In the case of CCOC(=O)c1[nH]c(C2NC(=O)NC(C)=C2C(=O)Nc2ccccc2OC)c(C(=O)OC)c1C (stereo not drawn) [D3], the “OD490 values, Mean” value (0.5μM, first assay) is reported as 1.3020, the “OD490 values, Well 1” value (0.5μM, first assay) is reported as 1.4715 and the “OD490 values, Well 2” value (0.5μM, first assay) is reported as 1.2756. For the same compound, the “OD490 values, Well 3” value (0.5μM, first assay) was 1.1589, the “OD490 values, Mean” value (1μM, first assay) was 1.3230 and the “OD490 values, Well 1” value (1μM, first assay) was 1.4997. For the same compound, the “OD490 values, Well 2” value (1μM, first assay) was 1.2316, the “OD490 values, Well 3” value (1μM, first assay) was 1.2376 and the “OD490 values, Mean” value (10μM, first assay) was 1.3760. The “OD490 values, Well 1” value (10μM, first assay) was 1.4568, the “OD490 values, Well 2” value (10μM, first assay) was 1.4534 and the “OD490 values, Well 3” value (10μM, first assay) was 1.2179. The “OD490 values, Mean” value (25μM, first assay) was 1.2499, the “OD490 values, Well 1” value (25μM, first assay) was 1.2312 and the “OD490 values, Well 2” value (25μM, first assay) was 1.2473. For the same compound, the “OD490 values, Well 3” value (25μM, first assay) was 1.2712, the “OD490 values, Mean” value (50μM, first assay) was 1.1939 and the “OD490 values, Well 1” value (50μM, first assay) was 1.2135. The “OD490 values, Well 2” value (50μM, first assay) was 1.2454, the “OD490 values, Well 3” value (50μM, first assay) was 1.1229 and the “OD490 values, Mean” value (100μM, first assay) was 1.1051. For the same compound, the “OD490 values, Well 1” value (100μM, first assay) was 1.0930, the “OD490 values, Well 2” value (100μM, first assay) was 1.2053 and the “OD490 values, Well 3” value (100μM, first assay) was 1.0171. For the same compound, the IC50 was over 150 µM.

With CCOC(=O)c1[nH]c(C2NC(=O)NC(C)=C2C(=O)Nc2ccccc2C)c(C(=O)OC)c1C (stereo not drawn) [D4] the “OD490 values, Mean” value (0.5μM, first assay) was 1.2390, the “OD490 values, Well 1” value (0.5μM, first assay) was 1.2664 and the “OD490 values, Well 2” value (0.5μM, first assay) was 1.2769. For the same compound, the “OD490 values, Well 3” value (0.5μM, first assay) was 1.1737, the “OD490 values, Mean” value (0.5μM, second assay) was 1.6699 and the “OD490 values, Well 1” value (0.5μM, second assay) was 1.5847. The “OD490 values, Well 2” value (0.5μM, second assay) was 1.7925, the “OD490 values, Well 3” value (0.5μM, second assay) was 1.6324 and the “OD490 values, Mean” value (0.5μM, third assay) was 1.6193. The “OD490 values, Well 1” value (0.5μM, third assay) was 1.5741, the “OD490 values, Well 2” value (0.5μM, third assay) was 1.5987 and the “OD490 values, Well 3” value (0.5μM, third assay) was 1.6852. For the same compound, the “OD490 values, Mean” value (1μM, first assay) was 1.1804, the “OD490 values, Well 1” value (1μM, first assay) was 1.2290 and the “OD490 values, Well 2” value (1μM, first assay) was 1.2817. For the same compound, the “OD490 values, Well 3” value (1μM, first assay) was 1.0306, the “OD490 values, Mean” value (1μM, second assay) was 1.6792 and the “OD490 values, Well 1” value (1μM, second assay) was 1.5848. The “OD490 values, Well 2” value (1μM, second assay) was 1.6985, the “OD490 values, Well 3” value (1μM, second assay) was 1.7542 and the “OD490 values, Mean” value (1μM, third assay) was 1.5459. The “OD490 values, Well 1” value (1μM, third assay) was 1.5698, the “OD490 values, Well 2” value (1μM, third assay) was 1.5478 and the “OD490 values, Well 3” value (1μM, third assay) was 1.5202. For the same compound, the “OD490 values, Mean” value (10μM, first assay) was 1.0446, the “OD490 values, Well 1” value (10μM, first assay) was 1.1408 and the “OD490 values, Well 2” value (10μM, first assay) was 0.9532. The “OD490 values, Well 3” value (10μM, first assay) was 1.0397, the “OD490 values, Mean” value (10μM, second assay) was 1.6098 and the “OD490 values, Well 1” value (10μM, second assay) was 1.5562. For the same compound, the “OD490 values, Well 2” value (10μM, second assay) was 1.5879, the “OD490 values, Well 3” value (10μM, second assay) was 1.6852 and the “OD490 values, Mean” value (10μM, third assay) was 1.5291. The “OD490 values, Well 1” value (10μM, third assay) was 1.5364, the “OD490 values, Well 2” value (10μM, third assay) was 1.5879 and the “OD490 values, Well 3” value (10μM, third assay) was 1.4630. The “OD490 values, Mean” value (25μM, first assay) was 0.9627, the “OD490 values, Well 1” value (25μM, first assay) was 0.8216 and the “OD490 values, Well 2” value (25μM, first assay) was 0.8395. For the same compound, the “OD490 values, Well 3” value (25μM, first assay) was 1.2269, the “OD490 values, Mean” value (25μM, second assay) was 1.4236 and the “OD490 values, Well 1” value (25μM, second assay) was 1.4545. The “OD490 values, Well 2” value (25μM, second assay) was 1.4879, the “OD490 values, Well 3” value (25μM, second assay) was 1.3285 and the “OD490 values, Mean” value (25μM, third assay) was 1.2968. The “OD490 values, Well 1” value (25μM, third assay) was 1.3325, the “OD490 values, Well 2” value (25μM, third assay) was 1.3214 and the “OD490 values, Well 3” value (25μM, third assay) was 1.2365. For the same compound, the “OD490 values, Mean” value (50μM, first assay) was 0.9261, the “OD490 values, Well 1” value (50μM, first assay) was 0.8106 and the “OD490 values, Well 2” value (50μM, first assay) was 0.9635. For the same compound, the “OD490 values, Well 3” value (50μM, first assay) was 1.0043, the “OD490 values, Mean” value (50μM, second assay) was 1.2976 and the “OD490 values, Well 1” value (50μM, second assay) was 1.3201. The “OD490 values, Well 2” value (50μM, second assay) was 1.2240, the “OD490 values, Well 3” value (50μM, second assay) was 1.3487 and the “OD490 values, Mean” value (50μM, third assay) was 1.2105. For the same compound, the “OD490 values, Well 1” value (50μM, third assay) was 1.1145, the “OD490 values, Well 2” value (50μM, third assay) was 1.2301 and the “OD490 values, Well 3” value (50μM, third assay) was 1.2869. For the same compound, the “OD490 values, Mean” value (100μM, first assay) was 0.7075, the “OD490 values, Well 1” value (100μM, first assay) was 0.8384 and the “OD490 values, Well 2” value (100μM, first assay) was 0.6461. For the same compound, the “OD490 values, Well 3” value (100μM, first assay) was 0.6379, the “OD490 values, Mean” value (100μM, second assay) was 0.8731 and the “OD490 values, Well 1” value (100μM, second assay) was 0.9062. For the same compound, the “OD490 values, Well 2” value (100μM, second assay) was 0.8662, the “OD490 values, Well 3” value (100μM, second assay) was 0.8469 and the “OD490 values, Mean” value (100μM, third assay) was 0.8397. For the same compound, the “OD490 values, Well 1” value (100μM, third assay) was 0.8652, the “OD490 values, Well 2” value (100μM, third assay) was 0.7214 and the “OD490 values, Well 3” value (100μM, third assay) was 0.9325. The IC50 was 94.5 µM.
